Reference: PubChem BioAssay (NCI)
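How tested: cells in 96-well plates exposed to compound for 48 hours at five concentrations. TGI: total growth inhibition.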

Experiments:
Assay in all cases: NCI-60 cell line screen, 48 h
[1] = system: CAKI-1 renal
[2] = system: BT-549 breast
[3] = system: UACC-257 melanoma
[4] = system: SN12C renal
[5] = system: HCT-116 colon
[6] = system: U251 CNS
[7] = system: LOX IMVI melanoma
[8] = system: HCT-15 colon
[9] = system: SK-MEL-28 melanoma
[10] = system: PC-3 prostate
[11] = system: SK-MEL-2 melanoma
[12] = system: MDA-N
[13] = system: SK-MEL-5 melanoma
[14] = system: KM12 colon
[15] = system: 786-0 renal
[16] = system: OVCAR-4 ovarian
[17] = system: UACC-62 melanoma
[18] = system: NCI/ADR-RES ovarian
[19] = system: IGROV1 ovarian
[20] = system: OVCAR-3 ovarian
[21] = system: NCI-H23 lung
[22] = system: HL-60(TB) leukemia
[23] = system: RXF 393 renal
[24] = system: COLO 205 colon
[25] = system: NCI-H226 lung
[26] = system: OVCAR-5 ovarian
[27] = system: SF-539 CNS
[28] = system: SK-OV-3 ovarian
[29] = system: DU-145 prostate
[30] = system: RPMI-8226 leukemia
[31] = system: OVCAR-8 ovarian
[32] = system: SR leukemia
[33] = system: CCRF-CEM leukemia
[34] = system: EKVX NSCLC
[35] = system: TK-10 renal
[36] = system: UO-31 renal
[37] = system: MDA-MB-435
[38] = system: SW-620 colon
[39] = system: NCI-H460 lung
[40] = system: ACHN renal
[41] = system: SNB-19 CNS
[42] = system: K-562 leukemia
[43] = system: M14 melanoma
[44] = system: HT29 colon
[45] = system: A498 renal
[46] = system: A549 NSCLC
[47] = system: HOP-62 NSCLC
[48] = system: MDA-MB-231 breast
[49] = system: SF-295 CNS
[50] = system: HOP-92 NSCLC
[51] = system: T-47D breast
[52] = system: MOLT-4 leukemia
[53] = system: MCF7 breast
[54] = system: SNB-75 CNS
[55] = system: SF-268 CNS
[56] = system: MALME-3M melanoma
[57] = system: NCI-H522 lung
[58] = system: HCC-2998 colon
[59] = system: HS 578T breast

O=C(O)C(=O)Cc1ccc2c(c1)OCO2
TGI [1]: > 100 µM | TGI [2]: > 100 µM | TGI [3]: > 100 µM | TGI [4]: > 100 µM | TGI [5]: > 100 µM | TGI [6]: > 100 µM | TGI [7]: > 100 µM | TGI [8]: > 100 µM | TGI [9]: > 100 µM | TGI [10]: > 100 µM | TGI [11]: > 100 µM | TGI [12]: > 100 µM | TGI [13]: > 100 µM | TGI [14]: > 100 µM | TGI [15]: > 100 µM | TGI [16]: > 100 µM | TGI [17]: > 100 µM | TGI [18]: > 100 µM | TGI [19]: > 100 µM | TGI [20]: > 100 µM | TGI [21]: > 100 µM | TGI [22]: > 100 µM | TGI [23]: > 100 µM | TGI [24]: > 100 µM | TGI [25]: > 100 µM | TGI [26]: > 100 µM | TGI [27]: > 100 µM | TGI [28]: > 100 µM | TGI [29]: > 100 µM | TGI [30]: > 100 µM | TGI [31]: > 100 µM | TGI [32]: > 100 µM | TGI [33]: 67.1 µM | TGI [34]: > 100 µM | TGI [35]: > 100 µM | TGI [36]: > 100 µM | TGI [37]: > 100 µM | TGI [38]: > 100 µM | TGI [39]: > 100 µM | TGI [40]: > 100 µM | TGI [41]: > 100 µM | TGI [42]: > 100 µM | TGI [43]: > 100 µM | TGI [44]: > 100 µM | TGI [45]: > 100 µM | TGI [46]: > 100 µM | TGI [47]: > 100 µM | TGI [48]: > 100 µM | TGI [49]: > 100 µM | TGI [50]: > 100 µM | TGI [51]: > 100 µM | TGI [52]: > 100 µM | TGI [53]: > 100 µM | TGI [54]: > 100 µM

CC1CCCOc2ccc(cc2)C=Nc2ccc(cc2)CCc2ccc(cc2)N=Cc2ccc(cc2)OCCC1 (centres undefined)
TGI [1]: > 100 µM | TGI [2]: > 100 µM | TGI [3]: > 100 µM | TGI [4]: > 100 µM | TGI [55]: > 100 µM | TGI [5]: > 100 µM | TGI [6]: > 100 µM | TGI [7]: > 100 µM | TGI [8]: > 100 µM | TGI [9]: > 100 µM | TGI [56]: > 100 µM | TGI [57]: > 100 µM | TGI [10]: > 100 µM | TGI [11]: > 100 µM | TGI [12]: > 100 µM | TGI [13]: > 100 µM | TGI [14]: > 100 µM | TGI [15]: > 100 µM | TGI [16]: > 100 µM | TGI [17]: > 100 µM | TGI [18]: > 100 µM | TGI [19]: > 100 µM | TGI [20]: > 100 µM | TGI [21]: > 100 µM | TGI [24]: > 100 µM | TGI [25]: > 100 µM | TGI [26]: > 100 µM | TGI [27]: > 100 µM | TGI [58]: > 100 µM | TGI [29]: > 100 µM | TGI [30]: > 100 µM | TGI [31]: > 100 µM | TGI [32]: > 100 µM | TGI [33]: > 100 µM | TGI [34]: > 100 µM | TGI [35]: > 100 µM | TGI [36]: > 100 µM | TGI [37]: > 100 µM | TGI [38]: > 100 µM | TGI [39]: > 100 µM | TGI [40]: > 100 µM | TGI [41]: > 100 µM | TGI [42]: > 100 µM | TGI [43]: > 100 µM | TGI [44]: > 100 µM | TGI [45]: > 100 µM | TGI [46]: > 100 µM | TGI [47]: > 100 µM | TGI [48]: > 100 µM | TGI [49]: > 100 µM | TGI [50]: > 100 µM | TGI [52]: > 100 µM | TGI [53]: > 100 µM | TGI [54]: > 100 µM | TGI [59]: > 100 µM
